Results: patent publication US20240051997A1, “SAP AND PEPTIDOMIMETIC COMPOSITIONS FOR REDUCING SYMPTOMS OF INFLAMMATION” (Arch Biosurgery, Inc., priority 2018, published 2024)

Legend:
[1] = system: kidney inflammation, ED-1 reactivity (macrophage activation); experiment: Acute kidney injury model (stab wound plus cautery), ED-1 immunohistochemistry; type: in vivo, Sprague-Dawley rat; details: rat kidney, 3% solution of EARA-16 or 1% solution of KS
Procedure: The anti-inflammatory effects of EARA-16 (SEQ ID NO: 89) and a RADA-kidney specific peptide conjugate (Ac-(RADA)3CVSVPQAL-CONH2; SEQ ID NO: 413; referred to as KS) were examined. Specifically, the effects of EARA-16 and KS on inflammation caused by burn damage were examined using an acute kidney injury model. Levels of inflammation were assayed through immuno-histochemical ED-1 reactivity (ED-1 serves as a marker of macrophage activation).
Adult Sprague-Dawley rats were anesthetized and their intraperitoneal cavities were opened under aseptic conditions. For each animal, the kidney was exposed and then subjected to a stab wound injury.
Cautery was then performed at the injury site to stop bleeding. After cauterization, the injury site was either left untreated and the animals were closed or the site was treated with a 3% solution of EARA-16 (SEQ ID NO: 89) or a 1% solution of KS (SEQ ID NO: 413). The animals were allowed to survive for up to 14 days. The animals were then sacrificed and their kidneys were harvested and sectioned. An ED-1 antibody was used to determine the level of inflammation and activation of macrophages in the kidney via immunohistochemistry (IHC). For each experimental condition, n=3 (max).
Animals receiving no injury, but in which saline was applied to the kidney in a similar location to that of the experimental animals, were used as controls (n=8).

[2] = system: liver inflammation, ED-1 reactivity (macrophage activation); experiment: Pig liver injury model (punch biopsy), ED-1 immunohistochemistry; type: in vivo; details: 8 mm punch biopsy, day 7 post-treatment, compared to saline or cauterization controls
Procedure: (§1) The anti-inflammatory effects of EARA-16 (SEQ ID NO: 89) and RADA-16 (SEQ ID NO: 1) SAPs were examined using a liver injury model. Levels of inflammation were assayed through immuno-histochemical ED-1 reactivity (ED-1 serves as a marker of macrophage activation).
(§2) Pigs or adult Sprague-Dawley rats were anesthetized and their intraperitoneal cavities were opened under aseptic conditions. For each animal, the liver was exposed and then subjected to an 8 mm (pig) or 4 mm (rat) punch biopsy.
(§3) The punch sites were then cauterized or treated with acid (for pH control), saline, or RADA-16 (SEQ ID NO: 1) or EARA-16 (SEQ ID NO: 89) solutions. The animals were allowed to survive for up to 14 days. The animals were then sacrificed and their livers were harvested and sectioned. An ED-1 antibody was used to determine the level of inflammation and activation of macrophages in the liver via immunohistochemistry (IHC).

[3] = system: liver inflammation, ED-1 reactivity (macrophage activation); experiment: Rat liver injury model (punch biopsy), ED-1 immunohistochemistry; type: in vivo, Sprague-Dawley rat; details: 4 mm punch biopsy, all time-points observed, compared to saline or acid controls
Procedure: as §1, §2, §3

[4] = system: olfactory bulb inflammation, GFAP (reactive astrocytes); experiment: Olfactory bulb injury model (transection), GFAP immunohistochemistry; type: in vivo, Sprague-Dawley rat; details: rat olfactory bulb, days 2-14
Procedure: The anti-inflammatory effects of EARA-16 (SEQ ID NO: 89) and RADA-16 (SEQ ID NO: 1) were examined using an olfactory bulb injury model. Levels of inflammation were assayed through immunohistochemical staining for glial fibrillary acidic protein (GFAP) as an indicator of reactive astrocytes.
In brief, the olfactory bulbs of adult Sprague-Dawley rats were unilaterally transected and the cuts were then treated with either saline as a control, or one of RADA-16 (SEQ ID NO: 1) or EARA-16 (SEQ ID NO: 89) solutions (each used at 1% and 3%). The SAP materials were injected into the cuts post transection at the time of surgery. After 2, 7 or 14 days, the animals were sacrificed.
A more detailed protocol is as follows: adult Sprague-Dawley rats were anesthetized with a mixture of ketamine (80 mg/kg, i. p.) and xylazine (8 mg/kg, i. p.). The head was shaved and a thorough disinfection of the head surface was carried out with iodine 5% solution. The bilateral olfactory bulbs were exposed by drilling two burr holes (2 mm diameter, 8 mm anterior to the bregma) on either side at a distance of 2 mm from the midline of the frontal bone in the region overlying the olfactory bulbs. A cataract knife with a blunted end and one sharpened edge was used for surgery. The cut was performed on the middle of olfactory bulb. The blunted edge of the knife was inserted along the middle line of the olfactory bulb to prevent damage of the sagittal sinus, until the tip of the knife lightly touched the bottom of the brain without penetration of the dura. The knife was then moved laterally to transect the bulb until it reached the lateral edge of the hole. The knife was then rotated and pulled out to have a complete cut of the bulb at lateral side. This procedure was modified from the method described in several previous studies attempting to isolate the olfactory bulb from other parts of the brain (Ahrens & Freeman 2001; Allison 1953; Chaput 1983; Freeman 1968; Koliatsos et al 2004; Munirathinam et al 1997).
After performing the cut, one of the solutions was used to treat the injury site: either 10 μl saline (control group) or the EARA-16 (SEQ ID NO: 89) or RADA-16 (SEQ ID NO: 1) SAP (at a concentration of 1% and 3%) was injected evenly into the wound site using a self-constructed hydraulic pressure injection system without micro syringe. This technique was modified from similar methods as described by Bullier and others (Bullier et al 1980; Fish & Rhoades 1981; Kratskin et al 1997; Meyers & Snow 1981; Price et al 1977; Shipley 1982). Care was taken to control the speed of the injection of the saline or the SAP. After the injection, the wound was closed and the animals were placed in a warm place for recovery before they were brought back to their home cages. […]

Ac-(RADA)3CVSVPQAL-CONH2 (Ac-RADARADARADACVSVPQAL-NH2) [KS, RADA-kidney specific peptide conjugate]
reduction in inflammation compared to cautery only (ED-1 IHC) ([1]; 7-day survival): 68% | reduction in inflammation compared to cautery only (ED-1 IHC) ([1]; 14-day survival): 66%

EARAEARAEARAEARA [EARA-16, self-assembling peptide]
levels of inflammation in liver (ED-1 IHC) [2]: markedly reduced the levels of inflammation | levels of inflammation in liver (ED-1 IHC) [3]: markedly reduced the levels of inflammation | reduction in inflammation compared to cautery only (ED-1 IHC) ([1]; 7-day survival): 80% | reduction in inflammation compared to cautery only (ED-1 IHC) ([1]; 14-day survival): 66% | time course of reactive astrocyte activation / inflammation (GFAP) ([4]; 1% solution): increased activation of reactive astrocytes on day 7 which subsequently reduced by day 14 | time course of reactive astrocyte activation / inflammation (GFAP) ([4]; 3% solution): increasing inflammation levels, but at a much slower rate than the saline controls
